The values that follow come from EP3909578A1, “ANTIVIRAL COMPOSITION COMPRISING EEYARESTATIN I” (Universidad de Castilla la Mancha, priority 2020, dated 2021).

The structures appear in SMILES notation. Where two headings read alike, the source gives them in different places.

The subject of data set [1] is Zika virus. In words: Virucidal activity: cell-free incubation of virus sample with drug at 37°C, then TCID50 titration. The note with it: for virucidal activity (loss of viral infectivity): incubation at 37°C in the absence of cells, EEY 10 µM, XAN 10 µM, AMA 800 µM for 4 hours, or 6 µM over time. The text has this:
(§1) • Figure 1. Schematic representation of flavivirus life cycle and steps inhibited by eeyarestatin I. The antiviral effect observed during treatment with eeyarestatin I can be due to the inhibition of at least three different steps of the life cycle (indicated with a red star and highlighted in red letters). A, Inhibition of the valosin-containing protein / p97 ATPase (VCP/p97) and/or ERAD pathway indirectly affects virus replication on ER factories. B, Inhibition of VCP/p97 affects virus uncoating. C, Novel mechanism of action described in this invention: eeyarestatin I reduces virus particle infectivity before entering the cell (discovery patented here). • Figure 2. Cell viability after exposure to VCP/p97 inhibitors. Viability of Vero (African green monkey kidney fibroblasts) cells treated with VCP/p97 inhibitors xanthohumol (XAN) and eeyarestatin I (EEY) during 24 (A) or 48 hours (B). Cellular viability is represented as the percentage of metabolically active cells relative to mock-treated cells (CellTiter-Blue Cell Viability Assay, Promega). There are given the 50% cytotoxicity concentration (CC50) values for each drug and exposure time tested. • Figure 3. VCP/p97 drugs Xanthohumol and eeyarestatin I inhibit virus replication in cell culture (Vero cells). Virus titres measured by 50% tissue culture infectious dose (TCID50) in the supernatants of Zika virus-infected cells. A, Schematic representation of the assay. A monolayer of Vero cells was inoculated with Zika virus at a multiplicity of infection (MOI) of 1 TCID50 per cell (input). After 1 hour of incubation at 37°C, to allow virus adsorption, the supernatant was removed, the cells washed, and fresh media containing each drug at the concentrations indicated was added. At 24 hours post infection the cellular supernatants were collected (virus progeny) and the virus yields quantified by TCID50 (virus titration). B-C, Changes in virus titres and cell viability in cultures treated with increasing concentrations of eeyarestatin I (B) and xanthohumol (C) for 24 hours. The 50% inhibitory concentration (IC50) and the selectivity index (SI) values are provided for each drug. […] A, Schematic representation of the assay. The virus sample is directly incubated at 37°C in the presence of increasing concentrations of drugs. The treated sample is collected at different time points and directly titrated by TCID50. B-D Decrease in infectivity observed in a virus sample treated with amantadine (AMA), xanthohumol (XAN) or eeyarestatin I (EEY) and compared to a virus sample untreated (no drug) or mock-treated with vehicle (DMSO). B, Zika virus was incubated during 4 hours at 37°C in the presence of EEY (10 µM), XAN (10 µM), AMA (800 µM) or in the absence of drugs. C, Changes in the infectivity along time of a Zika virus sample incubated at 37°C in the presence of 6 µM EEY or XAN, or in the absence of drugs (No drug, DMSO). D, Changes in Usutu virus infectivity along time for a sample incubated at 37°C in the presence of 6 µM EEY or XAN, or in the absence of drugs (No drug, DMSO). • Figure 5. Eeyarestatin I exerts virucidal activity in a dose-dependent manner. […] Eeyarestatin I half maximum inhibitory concentration (IC50) is <1 µM for both Zika (A) and Usutu (B) viruses. • Figure 6. […] A, Schematic representation of the procedure to select adapted virus. In each virus passage, 100 µl of neat virus from the previous passage are inoculated to a monolayer of 10^5 Vero cells. After cell wash, the monolayer is incubated at 37°C and 5% CO2 in 1 ml of media (DMEM, 10% foetal bovine serum, 100 units penicillin-streptomycin) in the presence (EEY-adapted) or absence (untreated) of 5 µM eeyarestatin I. At 48 hours post-infection, the cellular supernatants are collected, titrated, and employed for the following virus passage. This process is repeated for a total of nine viral transfers. […]

For the next data set, the system named is Vero cells. In words: Cell viability of Vero cells after exposure to VCP/p97 inhibitors (CellTiter-Blue Cell Viability Assay). Type of data set: cell-based, African green monkey. The text has this: • Figure 1. Schematic representation of flavivirus life cycle and steps inhibited by eeyarestatin I. The antiviral effect observed during treatment with eeyarestatin I can be due to the inhibition of at least three different steps of the life cycle (indicated with a red star and highlighted in red letters). A, Inhibition of the valosin-containing protein / p97 ATPase (VCP/p97) and/or ERAD pathway indirectly affects virus replication on ER factories. B, Inhibition of VCP/p97 affects virus uncoating. C, Novel mechanism of action described in this invention: eeyarestatin I reduces virus particle infectivity before entering the cell (discovery patented here). • Figure 2. Cell viability after exposure to VCP/p97 inhibitors. Viability of Vero (African green monkey kidney fibroblasts) cells treated with VCP/p97 inhibitors xanthohumol (XAN) and eeyarestatin I (EEY) during 24 (A) or 48 hours (B). Cellular viability is represented as the percentage of metabolically active cells relative to mock-treated cells (CellTiter-Blue Cell Viability Assay, Promega). […] Virus titres measured by 50% tissue culture infectious dose (TCID50) in the supernatants of Zika virus-infected cells. […] At 24 hours post infection the cellular supernatants were collected (virus progeny) and the virus yields quantified by TCID50 (virus titration). […]
A general note: Resazurin is reduced to fluorescent resorufin, in cell work by metabolically active cells.

The subject of data set [2] is Zika virus. In words: Inhibition of Zika virus replication in infected Vero cell culture (MOI 1, virus yield by TCID50). The note with it: for Zika virus replication during infections in cell culture: Vero cells, MOI of 1, drug added after 1 hour adsorption, 24 hours post infection. Type of data set: cell-based. The text has this:
• Figure 1. Schematic representation of flavivirus life cycle and steps inhibited by eeyarestatin I. The antiviral effect observed during treatment with eeyarestatin I can be due to the inhibition of at least three different steps of the life cycle (indicated with a red star and highlighted in red letters). A, Inhibition of the valosin-containing protein / p97 ATPase (VCP/p97) and/or ERAD pathway indirectly affects virus replication on ER factories. B, Inhibition of VCP/p97 affects virus uncoating. C, Novel mechanism of action described in this invention: eeyarestatin I reduces virus particle infectivity before entering the cell (discovery patented here). • Figure 2. Cell viability after exposure to VCP/p97 inhibitors. Viability of Vero (African green monkey kidney fibroblasts) cells treated with VCP/p97 inhibitors xanthohumol (XAN) and eeyarestatin I (EEY) during 24 (A) or 48 hours (B). Cellular viability is represented as the percentage of metabolically active cells relative to mock-treated cells (CellTiter-Blue Cell Viability Assay, Promega). There are given the 50% cytotoxicity concentration (CC50) values for each drug and exposure time tested. • Figure 3. VCP/p97 drugs Xanthohumol and eeyarestatin I inhibit virus replication in cell culture (Vero cells). Virus titres measured by 50% tissue culture infectious dose (TCID50) in the supernatants of Zika virus-infected cells. A, Schematic representation of the assay. A monolayer of Vero cells was inoculated with Zika virus at a multiplicity of infection (MOI) of 1 TCID50 per cell (input). After 1 hour of incubation at 37°C, to allow virus adsorption, the supernatant was removed, the cells washed, and fresh media containing each drug at the concentrations indicated was added. At 24 hours post infection the cellular supernatants were collected (virus progeny) and the virus yields quantified by TCID50 (virus titration). B-C, Changes in virus titres and cell viability in cultures treated with increasing concentrations of eeyarestatin I (B) and xanthohumol (C) for 24 hours. […]

The test system of the next data set is Usutu virus. The data set can be described thus: Virucidal activity: cell-free incubation of virus sample with drug at 37°C, then TCID50 titration. As to conditions: for virucidal activity (loss of viral infectivity): incubation at 37°C in the absence of cells, 6 µM over time.
Description: as §1

For data set [3], the system named is Zika virus passaged during nine consecutive transfers (p9). In words: Virucidal activity on Zika virus populations after nine passages with or without 5 µM eeyarestatin I (resistance selection). The text has this:
• Figure 1. Schematic representation of flavivirus life cycle and steps inhibited by eeyarestatin I. The antiviral effect observed during treatment with eeyarestatin I can be due to the inhibition of at least three different steps of the life cycle (indicated with a red star and highlighted in red letters). A, Inhibition of the valosin-containing protein / p97 ATPase (VCP/p97) and/or ERAD pathway indirectly affects virus replication on ER factories. B, Inhibition of VCP/p97 affects virus uncoating. C, Novel mechanism of action described in this invention: eeyarestatin I reduces virus particle infectivity before entering the cell (discovery patented here). • Figure 2. Cell viability after exposure to VCP/p97 inhibitors. Viability of Vero (African green monkey kidney fibroblasts) cells treated with VCP/p97 inhibitors xanthohumol (XAN) and eeyarestatin I (EEY) during 24 (A) or 48 hours (B). Cellular viability is represented as the percentage of metabolically active cells relative to mock-treated cells (CellTiter-Blue Cell Viability Assay, Promega). There are given the 50% cytotoxicity concentration (CC50) values for each drug and exposure time tested. • Figure 3. VCP/p97 drugs Xanthohumol and eeyarestatin I inhibit virus replication in cell culture (Vero cells). Virus titres measured by 50% tissue culture infectious dose (TCID50) in the supernatants of Zika virus-infected cells. A, Schematic representation of the assay. A monolayer of Vero cells was inoculated with Zika virus at a multiplicity of infection (MOI) of 1 TCID50 per cell (input). After 1 hour of incubation at 37°C, to allow virus adsorption, the supernatant was removed, the cells washed, and fresh media containing each drug at the concentrations indicated was added. At 24 hours post infection the cellular supernatants were collected (virus progeny) and the virus yields quantified by TCID50 (virus titration). B-C, Changes in virus titres and cell viability in cultures treated with increasing concentrations of eeyarestatin I (B) and xanthohumol (C) for 24 hours. The 50% inhibitory concentration (IC50) and the selectivity index (SI) values are provided for each drug. […] A, Schematic representation of the assay. The virus sample is directly incubated at 37°C in the presence of increasing concentrations of drugs. The treated sample is collected at different time points and directly titrated by TCID50. B-D Decrease in infectivity observed in a virus sample treated with amantadine (AMA), xanthohumol (XAN) or eeyarestatin I (EEY) and compared to a virus sample untreated (no drug) or mock-treated with vehicle (DMSO). B, Zika virus was incubated during 4 hours at 37°C in the presence of EEY (10 µM), XAN (10 µM), AMA (800 µM) or in the absence of drugs. […]

Where [4] appears, read: cell-free incubation at 37°C, listed as Eeyarestatin I, read-out: IC50 (virucidal activity).
Setting [5] is: cell-free incubation at 37°C, read-out: IC50 (virucidal activity).

Take `NC12CC3CC(CC(C3)C1)C2` [amantadine, reference compound]: the “virucidal activity (loss of viral infectivity)” value in the data set with Zika virus [1] is “did not affect viral infectivity”.

Regarding `CC1(C)C(N(O)C(=O)Nc2ccc(Cl)cc2)N(c2ccc(Cl)cc2)C(=O)N1CC(=O)N/N=C/C=C/c1ccc([N+](=O)[O-])o1` (centres unmarked) [eeyarestatin I], the “toxicity in cell culture” value in the data set on Vero cells (5 µM eeyarestatin I) is recorded as “very modest toxicity”. For the same compound, in the data set with Vero cells (time = 24 hours, read-out: 50% toxicity for Vero cells (CC50)), the CC50 was found to be 24000 nM. Besides, the “Zika virus replication during infections in cell culture” value with Zika virus [2] is “inhibit Zika virus replication”. The IC50 in the data set with Usutu virus (setting [4]) was below 1000 nM; with Usutu virus (setting [5]) it was 150 nM; with Usutu virus (time = 4 hours, read-out: estimated IC50), 150 nM; in the data set on Zika virus [1] (setting [4]) it was below 1000 nM; with Zika virus [1] (setting [5]) it was 590 nM; in the data set on Zika virus [1] (time = 4 hours, read-out: estimated inhibitory constant) it was below 600 nM. Moreover, the IC50 in data set [3] (EEY-adapted Zika virus p9 (nine passages in 5 µM eeyarestatin I), 37°C for 4 hours) was 130 nM; in data set [3] (adapted Zika virus population (passaged 9 times in the presence of eeyarestatin I)) it was 130 nM; in data set [3] (untreated Zika virus p9 (nine passages without drug), 37°C for 4 hours) it was 310 nM; in data set [3] (untreated Zika virus population (nine passages in the absence of drugs)), 310 nM. Moreover, the “virucidal activity (loss of viral infectivity)” value in the data set on Usutu virus is reported as “inhibits Usutu virus infectivity”; in the data set with Zika virus [1] it was “significant loss of infectivity”.

With `COc1cc(O)c(CC=C(C)C)c(O)c1C(=O)/C=C/c1ccc(O)cc1` [xanthohumol, reference compound], the “Zika virus replication during infections in cell culture” value in the data set on Zika virus [2] is “inhibit Zika virus replication”. In addition, in the data set with Zika virus [2] (Zika virus replication in Vero cells), the “selectivity index (ratio of CC50 and IC50)” value was above 5. The “virucidal activity (loss of viral infectivity)” value in the data set with Usutu virus was “no virucidal activity”; in the data set on Zika virus [1], “did not affect viral infectivity”.

A word on the CC50: it is the concentration giving 50% cytotoxicity.
